Test [1] has as its target T1, GKRP (Glucokinase Regulatory Protein) with human His-hepatic GK (Homo sapiens, UniProt Q14397).
T1 sequence (Q14397 1-625): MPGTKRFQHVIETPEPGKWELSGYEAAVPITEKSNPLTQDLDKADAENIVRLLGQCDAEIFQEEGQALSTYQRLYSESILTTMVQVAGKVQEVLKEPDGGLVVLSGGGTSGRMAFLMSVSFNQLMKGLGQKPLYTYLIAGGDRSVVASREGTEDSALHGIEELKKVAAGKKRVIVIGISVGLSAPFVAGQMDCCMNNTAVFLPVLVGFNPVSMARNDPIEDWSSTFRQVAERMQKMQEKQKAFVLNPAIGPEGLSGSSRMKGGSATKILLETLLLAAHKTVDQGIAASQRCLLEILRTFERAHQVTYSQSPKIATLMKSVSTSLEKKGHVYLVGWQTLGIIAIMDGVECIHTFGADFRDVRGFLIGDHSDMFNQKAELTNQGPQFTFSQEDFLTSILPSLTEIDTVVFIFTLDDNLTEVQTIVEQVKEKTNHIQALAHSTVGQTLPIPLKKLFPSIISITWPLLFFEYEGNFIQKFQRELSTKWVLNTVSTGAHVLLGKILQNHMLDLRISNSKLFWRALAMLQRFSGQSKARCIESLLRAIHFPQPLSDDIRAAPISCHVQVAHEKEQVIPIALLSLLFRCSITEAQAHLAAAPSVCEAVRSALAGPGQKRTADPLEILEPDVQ
Briefly: GKRP NADPH Coupled Assay. Type of test: biochemical. To be noted: indirect measure of glucose-6-phosphate, fluorescence, 1 μM GKRP (10×), 20 nM GK (5×). Here is the method: (§1) This assay is used to directly measure the formation of ^13C-glucose-6-phosphate from ^13C-glucose by liquid chromatography-mass spectrometry (LC MS/MS). Begin by preparing the following solutions: Compound Buffer (CB): 50 mM Tris, pH 7.5/4 mM MgCl2/6% DMSO/fresh 10 mM DTT from 1M frozen stock. Enzyme Buffer (EB): 50 mM Tris, pH 7.5/4 mM MgCl2/6% DMSO/fresh 0.1% BSA/fresh 0.01% Brij-35 (10% BSA and 1% Brij-35 stock). GK (Glucokinase) Working Stock (5×): Dilute human His-hepatic GK to 30 nM in EB buffer. […] After 30 minutes add 10 μl of GK Working Stock (5×). Re-seal the plate and incubate for another 30 minutes at room temperature while mixing. After the second 30 minutes, stop the reaction by the addition of 50 μl of 100% acetonitrile, seal, and mix for 5-10 minutes. Run 10 μl of this sample through the LC MS/MS (API 3200, Applied Biosystems Inc., Carlsbad, Calif.).
This assay is used as an indirect measure of glucose-6-phosphate (G6P) formed from glucose due to the enzymatic activity of glucokinase. Assay format is the same as for GKRP LC MS/MS Biochemical Assay with the following exceptions. GK Working Stock (5×): Dilute human His-hepatic GK to 20 nM in EB buffer. Stop & Detection Reagent (2×): Dilute β-nicotinamide adenine dinucleotide phosphate sodium salt (β-NADP) (Aldrich-Sigma, St. Louis, Mo.) to 2 mM from 100 mM stock (stock in 10 mM Tris, pH 9.2) and dilute glucose-6-phosphate dehydrogenase (Aldrich-Sigma, St. Louis, Mo.) to 0.04 Unit/μl from 10 Unit/μl (stock in 10 mM Tris pH 7.5/0.05% Brij-35) in 0.2 M Tris, pH 9.2/8% DMSO. After the initial 30 minute incubation add 10 μl of 20 nM GK diluted in EB (5×). Re-seal the plate and incubate for another 1 hour at room temperature while mixing. After 1 hour remove the seal and add 50 μl of Stop & Detection Reagent and incubate for 5 minutes at room temperature while mixing.

The target of test [2] is T1, GKRP (Glucokinase Regulatory Protein) with human His-hepatic GK. Nature of the test: GKRP LC MS/MS Biochemical Assay. The note with it: 13C-glucose-6-phosphate formation, 1 μM GKRP (10×), 30 nM GK (5×). The procedure: GKRP LC MS/MS Biochemical Assay
as §1

Setting [3] is: read-out: GK-GKRP EC50 (NADPH-coupled).
Where [4] appears, read: read-out: GK-GKRP EC50 (LC MS/MS).

Structures can show the parent of a compound that is named as a salt.

With `C[C@H]1CN(S(=O)(=O)c2nccs2)CCN1c1ccc(C(O)(C(F)(F)F)C(F)(F)F)cc1` [Example 31, 1,1,1,3,3,3-hexafluoro-2-(4-((2S)-2-methyl-4-(1,3-thiazol-2-ylsulfonyl)-1-piperazinyl)phenyl)-2-propanol trifluoroacetate], the EC50 in test [1] (GK-GKRP EC50 (NADPH-coupled)) was determined as 0.561 µM; in test [2] (GK-GKRP EC50 (LC MS/MS)), 0.702 µM.

`Cc1ccc(S(=O)(=O)N2CCN(c3ccc(C(O)(C(F)(F)F)C(F)(F)F)cc3)CC2)s1` [Example 8, 1,1,1,3,3,3-hexafluoro-2-(4-(4-((5-methyl-2-thiophenyl)sulfonyl)-1-piperazinyl)phenyl)-2-propanol]: the EC50 in test [1] (GK-GKRP EC50 (NADPH-coupled)) was 4.58 µM; in test [2] (GK-GKRP EC50 (LC MS/MS)) it was 11.4 µM.

For the molecule `CC(O)(c1ccc(N2CCN(S(=O)(=O)c3cccs3)CC2CN2CC3CCC(C2)O3)cc1)C(F)(F)F` (racemic) [Example 46, 1,1,1-trifluoro-2-(4-(2-(8-oxa-3-azabicyclo[3.2.1]oct-3-ylmethyl)-4-(2-thiophenylsulfonyl)-1-piperazinyl)phenyl)-2-propanol], the EC50 in test [1] (GK-GKRP EC50 (NADPH-coupled)) amounted to 0.154 µM; in test [2] (GK-GKRP EC50 (LC MS/MS)) it was 0.178 µM.

Consider `CC(O)(c1ccc(N2CCN(S(=O)(=O)c3cccs3)CC2CC2CCOCC2)cc1)C(F)(F)F` (single isomer, unassigned) [Example 37 Peak #2, 1,1,1-trifluoro-2-(4-(2-(tetrahydro-2H-pyran-4-ylmethyl)-4-(2-thiophenylsulfonyl)-1-piperazinyl)phenyl)-2-propanol], for which the EC50 in test [1] (GK-GKRP EC50 (NADPH-coupled)) is 0.124 µM; in test [2] (GK-GKRP EC50 (LC MS/MS)), 0.128 µM.

Regarding `CC(O)(c1ccc(N2CCN(S(=O)(=O)c3cccs3)CC2CC2CCOCC2)cc1)C(F)(F)F` (single isomer, unassigned) [Example 37 Peak #1, 1,1,1-trifluoro-2-(4-(2-(tetrahydro-2H-pyran-4-ylmethyl)-4-(2-thiophenylsulfonyl)-1-piperazinyl)phenyl)-2-propanol], the EC50 in test [1] (GK-GKRP EC50 (NADPH-coupled)) is 0.111 µM; in test [2] (GK-GKRP EC50 (LC MS/MS)), 0.162 µM.

Consider `O=S(=O)(c1cccs1)N1CCN(c2ccc(C(O)(C(F)(F)F)C(F)(F)F)cc2-c2cccnc2)CC1` [Example 72, 1,1,1,3,3,3-hexafluoro-2-(3-(3-pyridinyl)-4-(4-(2-thiophenylsulfonyl)-1-piperazinyl)phenyl)-2-propanol], for which the values for the EC50 in test [1] (GK-GKRP EC50 (NADPH-coupled)) and in test [2] (GK-GKRP EC50 (LC MS/MS)) were 0.775 µM and 0.783 µM, respectively.

For `O=S(=O)(c1ccsc1)N1CCN(c2ccc(C(O)(C(F)(F)F)C(F)(F)F)cc2)CC1` [Example 3, 1,1,1,3,3,3-hexafluoro-2-(4-(4-(3-thiophenylsulfonyl)-1-piperazinyl)phenyl)-2-propanol], the EC50 in test [1] (GK-GKRP EC50 (NADPH-coupled)) amounted to 0.597 µM; in test [2] (GK-GKRP EC50 (LC MS/MS)) it was 0.964 µM.

Turning to `CC(O)(c1ccc(N2CCN(S(=O)(=O)c3cccs3)CC2CC2CCCCC2)cc1)C(F)(F)F` (mixture of isomers) [Example 58, 2-(4-(2-(cyclohexylmethyl)-4-(2-thiophenylsulfonyl)-1-piperazinyl)phenyl)-1,1,1-trifluoro-2-propanol], the values for the EC50 in test [1] (setting [3]) and in test [2] (setting [4]) were 1 µM and 1.32 µM, respectively.

Regarding `CC(O)(c1ccc(N2CCN(S(=O)(=O)c3cccs3)CC2CC#N)cc1)C(F)(F)F` (mixture of isomers) [Example 55, (4-(2-thiophenylsulfonyl)-1-(4-(2,2,2-trifluoro-1-hydroxy-1-methylethyl)phenyl)-2-piperazinyl)acetonitrile], the EC50 in test [1] (setting [3]) came to 3.03 µM; in test [2] (setting [4]) it was 3.94 µM.

In the case of `O=S(=O)(c1ccccc1)c1ccc(-c2ccc(C(O)(C(F)(F)F)C(F)(F)F)cc2)cc1` [Example 21, 1,1,1,3,3,3-hexafluoro-2-(4′-(phenylsulfonyl)-4-biphenylyl)-2-propanol], the EC50 came out at 1.66 µM in test [1] (GK-GKRP EC50 (NADPH-coupled)) and 3.96 µM in test [2] (GK-GKRP EC50 (LC MS/MS)).

`CC(O)(c1ccc(N2CCN(S(=O)(=O)c3cccs3)CC2CN2C[C@H]3C[C@@H]2CO3)cc1)C(F)(F)F` (stereo partly drawn) [Example 50, 1,1,1-trifluoro-2-(4-(2-((1R,4R)-2-oxa-5-azabicyclo[2.2.1]hept-5-ylmethyl)-4-(2-thiophenylsulfonyl)-1-piperazinyl)phenyl)-2-propanol]: the values for the EC50 in test [1] (GK-GKRP EC50 (NADPH-coupled)) and in test [2] (GK-GKRP EC50 (LC MS/MS)) were 0.67 µM and 0.88 µM, respectively.

Values taken from US8431563B2 (priority 2010, dated 2013).
